Patent publication US20080108622A1, “COMBINATION THERAPY FOR THE TREATMENT OF PAIN” (priority 2006, published 2008)
Entries after “also recorded” stand apart in the source; their conditions may differ.

How the values were obtained:
adult male rats = assay: Postincisional hypersensitivity model of postoperative pain (paw incision, withdrawal threshold to von Frey filaments); format: in vivo, rat; settings: intrathecal (i.t.), 24 h after paw incision surgery
Procedure: Animal preparation: Following Animal Care and Use Committee approval, an intrathecal (i.t.) catheter with tip in the lumbar space is inserted as previously described in adult male rats weighing 250 g (Yaksh and Rudy, Physiol Behav. 1976, 7, 1032-1036). One week following the insertion of the i.t. catheter, paw incision surgery is performed as previously described (Brennan et al., Pain 1996, 64, 493-501). Briefly, animals are anesthetized with halothane, and a 1-cm long incision is made in the plantar aspect of the left hind paw starting 0.5 cm from the edge of the heel toward the toe after sterile preparation with 70% ethanol. The plantaris muscle is elevated and incised longitudinally. The wound is closed with 2 mattress sutures of 5.0 silk. Subsequently, withdrawal threshold to von Frey filaments is determined one day after surgery (Chaplan et al., J. Neurosci. Methods, 1994, 53, 55-63). For all testing but pilot dose ranging studies, investigators are blinded to study drug administration. A cut off value of 22 g is used. […]
Single drug injection: For single drug administration, a volume containing 5 μL drug is used, followed by 10 μL of saline. […] Dose response curves are first constructed, and ED40 values for single drugs are then determined at the time of peak effect.
Drug interaction: For the combination of T-62 with morphine and NBQX, two injections are performed since the time of peak effect for morphine and NBQX is 30 min earlier than that of T-62 (T-62 is injected 30 min before drug injections). Paw withdrawal thresholds are determined before surgery, before drug injection, and 30, 60, 90, 120, 150, 180, and 210 min after the second drug injection. […] The dose response curves are then constructed for the combined drugs, and the ED40 values of the combined drugs are calculated at the time point of peak effect. […]
Data analysis: Data are presented as mean ±S.E. Withdrawal threshold data are analyzed by two-way analysis of variance followed by Fisher's LSD test. […] Isobolograms are statistically analyzed by student T test.

[1] = cited from earlier work
male Sprague-Dawley rats = assay: Neuropathic pain model (Chung model, spinal nerve ligation, withdrawal threshold to von Frey filaments); format: in vivo, rat; settings: Chung model of chronic neuropathic pain, FIG. 8; for anti-allodynic effects: intrathecal single injection
Source text: Spinal Nerve Ligation: After Animal Care and Use Committee approval, male Sprague-Dawley rats (Harlan, Indianapolis, Ind., USA) weighing 180-200 g undergo anesthesia as previously described by Kim and Chung (Pain 1992, 50, 355-363). Briefly, under general anesthesia with inhalational halothane, the left L5 and L6 spinal nerves are identified through a small laminotomy and tightly ligated. Approximately one week later, an intrathecal catheter is placed under general anesthesia by insertion under direct vision of a polyethylene catheter through a small slit in the dura at the cisterna magnum, and advanced 8.5 cm such that the catheter tip resides in the lower lumbar intrathecal space. Animals are studied approximately one week later. Ligation of the lumbar spinal nerves results in a primarily unilateral increase in the sensitivity to light touch on the operated side. Sensitivity is assessed via application of calibrated von Frey filaments. The withdrawal threshold is determined using an up down method as previously described by Chaplan et al. (J. Neurosci. Methods 1994, 53, 55-63).
Experimental Design: Animals receive, at least 4 weeks after spinal nerve ligation surgery, and at least 1 week after intrathecal catheter insertion, single injections of vehicle (β-cyclodextrin) or the drug substance, using a randomized and blinded protocol. Withdrawal thresholds are determined at intervals for up to 20 hr after injection.

| SMILES | anti-hypersensitivity effect (reduction of mechanical hypersensitivity) (adult male rats) | anti-allodynic effects (male Sprague-Dawley rats) | further results |
| --- | --- | --- | --- |
| CN1CC[C@]23c4c5ccc(O)c4O[C@H]2[C@@H](O)C=C[C@H]3[C@H]1C5 [Morphine, morphine, reference compound] | reduces mechanical hypersensitivity in a time and dose dependent manner |  |  |
| NS(=O)(=O)c1cccc2c1c([N+](=O)[O-])cc1nc(O)c(O)nc12 [NBQX, 2,3-dihydroxy-6-nitro-7-sulfamoylbenzo(f)quinoxaline, reference compound] | reduces the mechanical hypersensitivity in a time and dose dependent manner |  |  |
| Nc1sc2c(c1C(=O)c1ccc(Cl)cc1)CCCC2 [T-62, (2-amino-4,5,6,7-tetrahydrobenzo[b]thiophen-3-yl)(4-chlorophenyl)methanone] | reduced mechanical hypersensitivity in a time dependent manner; also recorded: modest effect | dose-dependent anti-allodynic effects | effect on inflammatory and neuropathic pain ([1]; literature (Li et al. 2003, Li et al. 2002, Pan et al. 2001; US 6,248,774, US 6,489,356)): reduce inflammatory and neuropathic pain; oral efficacy ([1]; literature): orally effective; adverse side effects ([1]; literature, compared with administration of adenosine): avoid of the adverse side effects associated with administration of adenosine |
| Nc1sc2c(c1C(=O)c1ccccc1)CCS2 [formula (Ib)] |  | dose-dependent anti-allodynic effects |  |
| Nc1sc2c(c1C(=O)c1cccc3ccccc13)CCC2 [formula (Ic)] |  | dose-dependent anti-allodynic effects | relative potency among the three enhancers (male Sprague-Dawley rats): most potent enhancer of the three agents |
